{"source": "patent US4916122A", "about": "“3'-Azido-2',3'-dideoxyuridine anti-retroviral composition” (University of Georgia Research Foundation, Inc., priority 1987, dated 1990)", "key": {"L1210 cells": {"test_system": "L1210 cells", "details": "in vitro; Lin et al.; Lin and Mancini; cited from earlier work"}, "sarcoma 180 cells": {"test_system": "sarcoma 180 cells", "details": "in vitro; Lin et al.; cited from earlier work"}, "[1]": {"test_system": "two particular enzymes isolated from L1210 cells", "details": "Lin et al.; cited from earlier work"}, "[2]": {"experiment": "Effect on weight of uninfected BALB/c mice (FIG. 3)", "assay_type": "in vivo, mouse", "details": "compared with each other and control"}, "HIV-1 and SIV": {"test_system": "HIV-1 and SIV", "experiment": "Effect of delayed treatment on replication of HIV-1 and SIV in human PBM cells (FIG. 7)", "assay_type": "cell-based, HIV-1; SIV", "text": "(§1) A comparison of the differences in median effective an tiviral concentrations between human, non-human primate, and murine retroviruses is shown in Table 5. […] A further comparison of the activity of several nucleoside analogues, including CS-87, against HIV-1 and SIV in human PBM cells is shown in FIG. 6. The effect of delayed treatment with AZT, CS-87 or CS-91 on the replication of HIV-1 and SIV in human PBM cells is shown in FIGS. 7a, b, and c."}, "HIV (LAV-1)": {"test_system": "HIV (LAV-1)", "experiment": "Median effective antiviral concentration against HIV (Table 5)", "assay_type": "cell-based", "details": "Human immunodeficiency virus 1"}, "SIV (SMM)": {"test_system": "SIV (SMM)", "experiment": "Median effective antiviral concentration against SIV (Table 5)", "assay_type": "cell-based, simian immunodeficiency virus", "details": "Simian immunodeficiency virus", "text": "as §1"}, "[3]": {"test_system": "Mouse ecotropic (Cas-Br-M)", "experiment": "Median effective antiviral concentration against mouse ecotropic virus (Table 5)", "assay_type": "cell-based, murine retrovirus", "details": "unidentified retrovirus", "text": "as §1"}}}
{"smiles": "Nc1ccn([C@H]2CC[C@@H](CO)O2)c(=O)n1", "note": "[DDC, reference compound]", "values": [{"measurement": "activity against L1210 cells", "setting": "L1210 cells", "value": "inactive"}, {"measurement": "activity against sarcoma 180 cells", "setting": "sarcoma 180 cells", "value": "inactive"}, {"measurement": "inhibitory activity towards two particular enzymes isolated from L1210 cells", "setting": "[1]", "value": "only marginal inhibitory activity"}]}
{"smiles": "CCc1cn([C@H]2C[C@H](N=[N+]=[N-])[C@@H](CO)O2)c(=O)[nH]c1=O", "note": "[CS-85, 3'-azido-2',3'-dideoxy-5-ethyl-uridine, reference compound]", "values": [{"measurement": "effect on weight of uninfected BALB/c mice", "setting": "[2]", "value": "no significant difference"}]}
{"smiles": "[N-]=[N+]=N[C@H]1C[C@H](n2ccc(N)nc2=O)O[C@@H]1CO", "note": "[CS-91, 3' azido 2',3'-dideoxycytidine]", "values": [{"measurement": "effect of delayed treatment on replication of HIV-1 and SIV", "setting": "HIV-1 and SIV", "value": "time of administration is critical to the effectiveness of the treatment"}, {"measurement": "EC50", "setting": "HIV (LAV-1)", "value": 390, "unit": "nM"}, {"measurement": "EC50", "setting": "SIV (SMM)", "value": 1160, "unit": "nM"}, {"measurement": "EC50", "setting": "[3]", "value": 77900, "unit": "nM"}]}
